Assay results as given in patent US20060264623A1, “DNA-PK inhibitors” (KuDOS Pharmaceuticals Limited, priority 2005, published 2006).
Where two headings read alike, the source gives them in different places.

Columns and labels:
[1] = tested on: HeLa cells; assay: Survival Enhancement Ratio, clonogenic survival assay after 2 Gray irradiation; format: cell-based; details: inhibitor 500 nM
Procedure: The Survival Enhancement Ratio (SER) is a ratio of the enhancement of cell kill elicited by the DNA-PK inhibitor after 2 Grays of irradiation compared to unirradiated control cells. DNA-PK inhibitors were used at a fixed concentration of 500 nM. Radiation was delivered by a Faxitron 43855D machine at a dose rate of 1 Gy pre minute The SER at 2 Gray irradiation was calculated from the formula: [formula]
The degree of cell killing was monitored by a standard clonogenic survival assay. Briefly, tissue culture treated 6-well plates were seeded with HeLa cells at an appropriate concentration to give 100-200 colonies per well and returned to the incubator in order to allow the cells to attach. Four hours later, compound or vehicle control was added to the cells. The cells were then incubated for 1 hour in the presence of inhibitor prior to irradiation at 2 Gray using a Faxitron 43855D cabinet X-ray machine. The cells were then incubated for a further 16 hours before the media was replaced with fresh media in the absence of DNA-PK inhibitor. After 8 days, colonies formed were fixed and stained with Giemsa (Sigma, Poole, UK) and scored using an automated colony counter (Oxford Optronics Ltd, Oxford, UK). The data was calculated as described above.

[2] = target: T1, DNA-PK (Homo sapiens, UniProt P78527); assay: DNA-PK inhibition assay (ELISA, p53 serine 15 phosphorylation of GST-p53N66); format: biochemical, Mammalian (HeLa cell nuclear extract)
Procedure: In order to assess the inhibitory action of the compounds against DNA-PK in vitro, the following assay was used to determine IC50 values.
DNA-PK (250 ng) activity was measured at 30° C., in a final volume of 40 μl, in buffer containing 25 mM Hepes, pH7.4, 12.5 mM MgCl2, 50 mM KCl, 1 mM DTT, 10% Glycerol, 0.1% NP-40 and […] of the substrate GST-p53N66 (the amino terminal 66 amino acid resiudes of human wild type p53 fused to glutathione S-transferase) in polypropylene 96 well plates. To the assay mix, varying concentrations of inhibitor (in DMSO at a final concentration of 1%) were added. After 10 minutes of incubation, ATP was added to give a final concentration of 50 μM along with a 30mer double stranded DNA oligonucleotide (final concentraion of 0.5 ng/ml) to initiate the reaction. After 1 hour with shaking, 150 μl of phosphate buffered saline (PBS) was added to the reaction and 5 μl then transferred to a 96 well opaque white plate containing 45 μl of PBS per well where the GSTp53N66 substrate was allowed to bind to the wells for 1 hour. […] An anti-rabbit HRP conjugated secondary antibody (Pierce) was then employed in the ELISA before the addition of chemiluminescence reagent (NEN Renaissance) to detect the signal as measured by chemiluminescent counting via a TopCount NXT (Packard).
The enzyme activity for each compound is then calculated using the following equation: [formula] […]

[3] = tested on: cells; details: cited from earlier work
[4] = target: PI 3-kinase; details: stated to be the same as for DNA-PK; cited from earlier work
[5] = target: T1, DNA-PK; details: in vitro; read-out: IC50 towards DNA-PK; cited from earlier work

IC50 [2]	SMILES	SER (Survival Enhancement Ratio) [1]	sensitisation of cells to the effects of IR [3]	IC50 [4]	IC50 [5]
0.76 µM	O=c1cc(N2CCOCC2)oc2c(-c3cccc(-c4ccccc4)c3)cccc12	1.5			
	O=c1cc(N2CCOCC2)oc2c(-c3ccccc3)cccc12 [LY294002]		weakly sensitise	~1 µM	~1 µM
